US12583854B2, “KRAS G12C inhibitors and methods of using the same” (Amgen Inc., priority 2018, dated 2026)

target: GDP-bound KRAS protein (aa 1-169), containing both G12C and C118A amino acid substitutions (Homo sapiens, UniProt P01116, C118A/G12C); experiment: Coupled Nucleotide Exchange Assay; format: biochemical; settings: 5 min compound pre-incubation; SOS-mediated nucleotide exchange, AlphaScreen
Description: Following compound pre-incubation, purified SOS protein (aa 564-1049) and GTP (Roche 10106399001) were added to the assay wells and incubated for an additional 30 min. To determine the extent of inhibition of SOS-mediated nucleotide exchange, purified GST-tagged cRAF (aa 1-149), nickel chelate AlphaLISA acceptor beads (PerkinElmer AL108R), and AlphaScreen glutathione donor beads (PerkinElmer 6765302) were added to the assay wells and incubated for 10 minutes. The assay plates were then read on a PerkinElmer EnVision Multilabel Reader, using AlphaScreen® technology, and data were analyzed using a 4-parameter logistic model to calculate IC50 values.

GDP-bound KRAS protein (aa 1-169), containing both G12C and C118A amino acid substitutions, sequence (P01116 1-169 isoform P01116-2 G12C/C118A): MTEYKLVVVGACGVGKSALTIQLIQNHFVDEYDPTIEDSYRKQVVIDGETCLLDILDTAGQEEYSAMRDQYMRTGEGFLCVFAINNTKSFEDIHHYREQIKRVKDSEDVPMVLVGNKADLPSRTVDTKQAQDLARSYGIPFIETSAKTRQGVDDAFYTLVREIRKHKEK

Coupled exchange IC50 (5 min; μM) | Structure (SMILES)
82.1 µM | C=CC(=O)N1CCN(c2c(C#N)c(=O)n(-c3c(C(C)C)ccnc3C(C)C)c3nc(Cl)c(F)cc23)CC1 [Example 9, 4-(4-Acryloylpiperazin-1-yl)-7-chloro-1-(2,4-diisopropylpyridin-3-yl)-6-fluoro-2-oxo-1,2-dihydro-1,8-naphthyridine-3-carbonitrile]
0.92 µM | C=CC(=O)N1CCN(c2c(C#N)c(=O)n(-c3c(C)ccnc3C(C)C)c3nc(-c4ccccc4F)c(Cl)cc23)C[C@H]1C (single isomer, unassigned) [Example 6.6]
17.6 µM | C=CC(=O)N1C[C@H](C)N(c2c(C#N)c(=O)n(-c3c(C)ccnc3C(C)C)c3nc(-c4ccccc4F)c(Cl)cc23)C[C@H]1C (single isomer, unassigned) [Example 7.4]
0.71 µM | C=CC(=O)N1CCN(c2c(C#N)c(=O)n(-c3c(C)ccnc3C(C)C)c3nc(-c4ccccc4C)c(Cl)cc23)CC1 (single isomer, unassigned) [Example 11, 4-(4-Acryloylpiperazin-1-yl)-6-chloro-1-(2-isopropyl-4-methylpyridin-3-yl)-2-oxo-7-(o-tolyl)-1,2-dihydro-1,8-naphthyridine-3-carbonitrile]
1.96 µM | C=CC(=O)N1CCN(c2c(C#N)c(=O)n(-c3c(C)ccnc3C(C)C)c3nc(-c4ccccc4C(C)C)c(Cl)cc23)CC1 (single isomer, unassigned) [Example 11.2, 4-(4-acryloylpiperazin-1-yl)-6-chloro-1-(2-isopropyl-4-methylpyridin-3-yl)-7-(2-isopropylphenyl)-2-oxo-1,2-dihydro-1,8-naphthyridine-3-carbonitrile]
0.65 µM | C=CC(=O)N1CCN(c2c(C#N)c(=O)n(-c3c(C(C)C)ccnc3C(C)C)c3nc(-c4ccccc4F)c(F)cc23)CC1 [Example 10.1, 4-(4-acryloylpiperazin-1-yl)-1-(2,4-diisopropylpyridin-3-yl)-6-fluoro-7-(2-fluorophenyl)-2-oxo-1,2-dihydro-1,8-naphthyridine-3-carbonitrile]
25.1 µM | C=CC(=O)N1CCN(c2c(C#N)c(=O)n(-c3c(C(C)C)ncnc3C(C)C)c3nc(Cl)c(Cl)cc23)CC1 [Example 9.1, 4-(4-acryloylpiperazin-1-yl)-6,7-dichloro-1-(4,6-diisopropylpyrimidin-5-yl)-2-oxo-1,2-dihydro-1,8-naphthyridine-3-carbonitrile]
0.44 µM | C=CC(=O)N1CCN(c2c(C#N)c(=O)n(-c3c(C(C)C)ccnc3C(C)C)c3nc(-c4ccccc4F)c(F)cc23)CC1 [Example 10.4, 4-(4-acryloylpiperazin-1-yl)-1-(2,4-diisopropylpyridin-3-yl)-6-fluoro-7-(2-fluorophenyl)-2-oxo-1,2-dihydro-1,8-naphthyridine-3-carbonitrile]
0.83 µM | C=CC(=O)N1CCN(c2c(C#N)c(=O)n(-c3c(C(C)C)ccnc3C(C)C)c3nc(-c4ccccc4C)c(F)cc23)CC1 [Example 10.3, 4-(4-acryloylpiperazin-1-yl)-1-(2,4-diisopropylpyridin-3-yl)-6-fluoro-2-oxo-7-(o-tolyl)-1,2-dihydro-1,8-naphthyridine-3-carbonitrile]
0.45 µM | C=CC(=O)N1CCN(c2c(C#N)c(=O)n(-c3c(C(C)C)ccnc3C(C)C)c3nc(-c4ccccc4C)c(F)cc23)CC1 [Example 10.2, 4-(4-acryloylpiperazin-1-yl)-1-(2,4-diisopropylpyridin-3-yl)-6-fluoro-2-oxo-7-(o-tolyl)-1,2-dihydro-1,8-naphthyridine-3-carbonitrile]
0.32 µM | C=CC(=O)N1[C@H](C)CN(c2c(C#N)c(=O)n(-c3c(C)ccnc3C(C)C)c3nc(-c4ccccc4F)c(Cl)cc23)C[C@@H]1C (single isomer, unassigned) [Example 7.6]
3.26 µM | C=CC(=O)N1CCN(c2c(C#N)c(=O)n(-c3c(N(C)C)ccnc3C(C)C)c3nc(-c4ccccc4F)c(Cl)cc23)CC1 (single isomer, unassigned) [Example 8.5, 4-(4-acryloylpiperazin-1-yl)-6-chloro-1-(4-(dimethylamino)-2-isopropylpyridin-3-yl)-7-(2-fluorophenyl)-2-oxo-1,2-dihydro-1,8-naphthyridine-3-carbonitrile]
1.57 µM | C=CC(=O)N1CCN(c2c(C#N)c(=O)n(-c3c(C)ccnc3C(C)C)c3nc(-c4ccccc4F)c(Cl)cc23)C[C@@H]1C [Example 6.1, (S)-4-(4-acryloyl-3-methylpiperazin-1-yl)-6-chloro-7-(2-fluorophenyl)-1-(2-isopropyl-4-methylpyridin-3-yl)-2-oxo-1,2-dihydro-1,8-naphthyridine-3-carbonitrile]
0.94 µM | C=CC(=O)N1CCN(c2c(C#N)c(=O)n(-c3c(C(C)C)ccnc3C(C)C)c3nc(-c4ccccc4C)c(F)cc23)CC1 [Example 10, 4-(4-Acryloylpiperazin-1-yl)-1-(2,4-diisopropylpyridin-3-yl)-6-fluoro-2-oxo-7-(o-tolyl)-1,2-dihydro-1,8-naphthyridine-3-carbonitrile]
0.73 µM | C=CC(=O)N1CCN(c2c(C#N)c(=O)n(-c3c(C)ccnc3C(C)C)c3nc(-c4ccccc4F)c(Cl)cc23)CC1 [Example 6.4, 4-(4-acryloylpiperazin-1-yl)-6-chloro-7-(2-fluorophenyl)-1-(2-isopropyl-4-methylpyridin-3-yl)-2-oxo-1,2-dihydro-1,8-naphthyridine-3-carbonitrile]
0.18 µM | C=CC(=O)N1CCN(c2c(C#N)c(=O)n(-c3c(CN(C)C)ccnc3C(C)C)c3nc(-c4ccccc4F)c(Cl)cc23)CC1 [Example 2.1, 4-(4-acryloylpiperazin-1-yl)-6-chloro-1-(4-((dimethylamino)methyl)-2-isopropylpyridin-3-yl)-7-(2-fluorophenyl)-2-oxo-1,2-dihydro-1,8-naphthyridine-3-carbonitrile]
4.13 µM | C=CC(=O)N1CCN(c2c(C#N)c(=O)n(-c3c(C(C)C)ncnc3C(C)C)c3nc(-c4ccccc4CN(C)C)c(Cl)cc23)CC1 [Example 1, 4-(4-Acryloylpiperazin-1-yl)-6-chloro-1-(4,6-diisopropylpyrimidin-5-yl)-7-(2-((dimethylamino)methyl)phenyl)-2-oxo-1,2-dihydro-1,8-naphthyridine-3-carbonitrile]
36 µM | C=CC(=O)N1CCN(c2c(C#N)c(=O)n(-c3c(C)ccnc3C(C)C)c3nc(Cl)c(Cl)cc23)CC1 [Example 9.2, 4-(4-acryloylpiperazin-1-yl)-6,7-dichloro-1-(2-isopropyl-4-methylpyridin-3-yl)-2-oxo-1,2-dihydro-1,8-naphthyridine-3-carbonitrile]
5.71 µM | C=CC(=O)N1CCN(c2c(C#N)c(=O)n(-c3c(CN(C)C)ccnc3C(C)C)c3nc(-c4ccccc4F)c(Cl)cc23)CC1 [Example 2.2, 4-(4-acryloylpiperazin-1-yl)-6-chloro-1-(4-((dimethylamino)methyl)-2-isopropylpyridin-3-yl)-7-(2-fluorophenyl)-2-oxo-1,2-dihydro-1,8-naphthyridine-3-carbonitrile]
